Laboratory results published in paper PMC5218480 (PLoS ONE, 2017).

Test system: MV-4-11 cells
Test: Gene expression microarray analysis (Affymetrix PrimeView) and GSEA
Type: cell-based, human
Parameters: RFU PODN (11730768_x_at) / Fold change /veh PODN (11730768_x_at) / RFU LINC00158 (11744669_a_at) / Fold change /veh LINC00158 (11744669_a_at) / RFU DUSP10 (11751237_a_at) / Fold change /veh DUSP10 (11751237_a_at) / RFU ID3 (11757404_x_at) / Fold change /veh ID3 (11757404_x_at) / RFU PLEKHG5 (11737974_s_at) / Fold change /veh PLEKHG5 (11737974_s_at) / RFU LRRC4B (11730491_at) / Fold change /veh LRRC4B (11730491_at) / RFU GIMAP4 (11747438_a_at) / Fold change /veh GIMAP4 (11747438_a_at) / RFU KRT8 (11758183_x_at) / Fold change /veh KRT8 (11758183_x_at) / RFU CNN1 (11734310_a_at) / Fold change /veh CNN1 (11734310_a_at) / RFU VPS37D (11726825_at) / Fold change /veh VPS37D (11726825_at) / RFU C10orf10 (11716522_x_at) / Fold change /veh C10orf10 (11716522_x_at) / RFU KIR2DL2 /// KIR2DL4 /// KIR2DL5A /// KIR2DL5B /// KIR2DS1 /// KIR2DS2 /// KIR2DS3 /// KIR2DS4 /// KIR3DL3 /// KIR3DL3 /// KIR3DS1 (11738374_at) / Fold change /veh KIR2DL2 /// KIR2DL4 /// KIR2DL5A /// KIR2DL5B /// KIR2DS1 /// KIR2DS2 /// KIR2DS3 /// KIR2DS4 /// KIR3DL3 /// KIR3DL3 /// KIR3DS1 (11738374_at) / RFU C1QL1 (11718748_at) / Fold change /veh C1QL1 (11718748_at) / RFU TMPRSS4 (11747572_a_at) / Fold change /veh TMPRSS4 (11747572_a_at) / RFU HAMP (11756126_x_at) / Fold change /veh HAMP (11756126_x_at) / RFU RNFT2 (11725882_a_at) / Fold change /veh RNFT2 (11725882_a_at) / RFU NR4A2 (11747474_a_at) / Fold change /veh NR4A2 (11747474_a_at) / RFU ABCC12 (11746883_a_at) / Fold change /veh ABCC12 (11746883_a_at) / RFU TMEM136 (11760407_x_at) / Fold change /veh TMEM136 (11760407_x_at) / RFU CLDN22 /// WWC2 (11732394_at) / Fold change /veh CLDN22 /// WWC2 (11732394_at) / RFU HLA-DPB1 (11760878_x_at) / Fold change /veh HLA-DPB1 (11760878_x_at) / RFU SPINT1 (11716480_a_at) / Fold change /veh SPINT1 (11716480_a_at) / RFU GAP43 (11754022_s_at) / Fold change /veh GAP43 (11754022_s_at) / RFU A4GNT (11735810_at) / Fold change /veh A4GNT (11735810_at) / RFU PRB3 (11715151_x_at) / Fold change /veh PRB3 (11715151_x_at) / RFU TUBB4B (11761932_at) / Fold change /veh TUBB4B (11761932_at) / RFU CAPN14 (11732068_a_at) / Fold change /veh CAPN14 (11732068_a_at) / RFU TMCC2 (11721928_a_at) / Fold change /veh TMCC2 (11721928_a_at) / RFU IRGQ (11745062_a_at) / Fold change /veh IRGQ (11745062_a_at) / RFU FAM174B (11720279_a_at) / Fold change /veh FAM174B (11720279_a_at) / RFU TMPRSS4 (11748680_a_at) / Fold change /veh TMPRSS4 (11748680_a_at) / RFU FAM212B (11763350_a_at) / Fold change /veh FAM212B (11763350_a_at) / RFU PLEKHG5 (11743358_a_at) / Fold change /veh PLEKHG5 (11743358_a_at) / RFU ZSCAN30 (11745921_a_at) / Fold change /veh ZSCAN30 (11745921_a_at) / RFU CMKLR1 (11741424_a_at) / Fold change /veh CMKLR1 (11741424_a_at) / RFU LOC101060620 /// MAPK8IP1 (11723275_at) / Fold change /veh LOC101060620 /// MAPK8IP1 (11723275_at) / RFU SPTSSB (11747773_x_at) / Fold change /veh SPTSSB (11747773_x_at) / RFU PRSS12 (11739890_at) / Fold change /veh PRSS12 (11739890_at) / RFU BIN1 (11741810_x_at) / Fold change /veh BIN1 (11741810_x_at) / RFU WNT11 (11732464_a_at) / Fold change /veh WNT11 (11732464_a_at) / RFU C10orf10 (11716521_a_at) / Fold change /veh C10orf10 (11716521_a_at) / RFU C5orf56 (11738089_at) / Fold change /veh C5orf56 (11738089_at) / RFU CYB561 (11721691_x_at) / Fold change /veh CYB561 (11721691_x_at) / RFU ANKRD19P (11752326_a_at) / Fold change /veh ANKRD19P (11752326_a_at) / RFU OR2T12 /// OR2T33 /// OR2T8 (11738714_s_at) / Fold change /veh OR2T12 /// OR2T33 /// OR2T8 (11738714_s_at) / RFU VCAN (11748164_a_at) / Fold change /veh VCAN (11748164_a_at) / RFU JSRP1 (11732532_at) / Fold change /veh JSRP1 (11732532_at) / RFU KRTAP10-11 (11738290_x_at) / Fold change /veh KRTAP10-11 (11738290_x_at) / RFU MYO3A (11730013_a_at) / Fold change /veh MYO3A (11730013_a_at) / RFU EBF3 (11725865_a_at) / Fold change /veh EBF3 (11725865_a_at) / RFU CAMK2N1 (11719241_x_at) / Fold change /veh CAMK2N1 (11719241_x_at) / RFU C5orf56 (11738088_a_at) / Fold change /veh C5orf56 (11738088_a_at) / RFU OLFML3 (11715873_a_at) / Fold change /veh OLFML3 (11715873_a_at) / RFU LOC100653217 /// NTM (11731650_a_at) / Fold change /veh LOC100653217 /// NTM (11731650_a_at) / RFU MAPK11 (11762145_a_at) / Fold change /veh MAPK11 (11762145_a_at) / RFU FIZ1 (11724087_x_at) / Fold change /veh FIZ1 (11724087_x_at) / RFU OASL (11726364_x_at) / Fold change /veh OASL (11726364_x_at) / RFU SOX15 (11748057_x_at) / Fold change /veh SOX15 (11748057_x_at) / RFU CD79A (11719716_a_at) / Fold change /veh CD79A (11719716_a_at) / RFU HIST1H1D (11736915_at) / Fold change /veh HIST1H1D (11736915_at) / RFU CASKIN2 (11723855_a_at) / Fold change /veh CASKIN2 (11723855_a_at) / RFU LOC730098 (11760151_x_at) / Fold change /veh LOC730098 (11760151_x_at) / RFU OR4N2 (11742367_at) / Fold change /veh OR4N2 (11742367_at) / RFU PRRT2 (11749266_a_at) / Fold change /veh PRRT2 (11749266_a_at) / RFU SNX32 (11753110_a_at) / Fold change /veh SNX32 (11753110_a_at) / RFU CDHR5 (11726645_a_at) / Fold change /veh CDHR5 (11726645_a_at) / RFU RCAN1 (11760418_a_at) / Fold change /veh RCAN1 (11760418_a_at) / RFU FAM167A (11723789_a_at) / Fold change /veh FAM167A (11723789_a_at) / RFU FAM26E (11764081_at) / Fold change /veh FAM26E (11764081_at) / RFU ISYNA1 (11749810_s_at) / Fold change /veh ISYNA1 (11749810_s_at) / RFU ACY1 (11761880_at) / Fold change /veh ACY1 (11761880_at) / RFU 11764098_at / Fold change /veh 11764098_at / RFU SAMD14 (11745864_x_at) / Fold change /veh SAMD14 (11745864_x_at) / RFU NPB (11741838_a_at) / Fold change /veh NPB (11741838_a_at) / RFU TMPRSS6 (11731388_a_at) / Fold change /veh TMPRSS6 (11731388_a_at) / RFU KRTAP10-2 (11738614_at) / Fold change /veh KRTAP10-2 (11738614_at) / RFU ARHGAP8 /// PRR5-ARHGAP8 (11727945_x_at) / Fold change /veh ARHGAP8 /// PRR5-ARHGAP8 (11727945_x_at) / RFU KRTAP5-7 /// NADSYN1 (11734609_at) / Fold change /veh KRTAP5-7 /// NADSYN1 (11734609_at) / RFU RASL12 (11751679_a_at) / Fold change /veh RASL12 (11751679_a_at) / RFU CDKN2B (11736163_a_at) / Fold change /veh CDKN2B (11736163_a_at) / RFU PRF1 (11729649_at) / Fold change /veh PRF1 (11729649_at) / RFU, ZNF638 /// ZNF638-IT1 / Fold change vs veh, ZNF638 /// ZNF638-IT1 / RFU, PANK3 / Fold change vs veh, PANK3 / RFU, SH3YL1 / Fold change vs veh, SH3YL1 / RFU, ZEB2 / Fold change vs veh, ZEB2 / RFU, NRIP1 / Fold change vs veh, NRIP1 / RFU, PTTG1IP / Fold change vs veh, PTTG1IP / RFU, CAPN2 / Fold change vs veh, CAPN2 / RFU, MED14 / Fold change vs veh, MED14 / RFU, SNORA58 / Fold change vs veh, SNORA58 / RFU, C1orf63 / Fold change vs veh, C1orf63 / RFU, LRRFIP1 / Fold change vs veh, LRRFIP1 / RFU, NDUFAF7 / Fold change vs veh, NDUFAF7 / RFU, SLC12A2 / Fold change vs veh, SLC12A2 / RFU, IBTK / Fold change vs veh, IBTK / RFU, ESF1 / Fold change vs veh, ESF1 / Fold change vs veh, TMEM50B / RFU, TAOK1 / Fold change vs veh, TAOK1 / RFU, ACBD3 / Fold change vs veh, ACBD3 / RFU, TMA16 / Fold change vs veh, TMA16 / RFU, RWDD3 / Fold change vs veh, RWDD3 / RFU, BCAT1 / Fold change vs veh, BCAT1 / RFU, EDEM3 / Fold change vs veh, EDEM3 / RFU, TMEM33 / Fold change vs veh, TMEM33 / RFU, WDR75 / Fold change vs veh, WDR75 / RFU, AHCTF1 / Fold change vs veh, AHCTF1 / RFU, TFRC / Fold change vs veh, TFRC / RFU, ZDHHC17 / Fold change vs veh, ZDHHC17 / RFU, NOM1 / Fold change vs veh, NOM1 / RFU, ARL8B / Fold change vs veh, ARL8B / RFU, ZBTB11 / Fold change vs veh, ZBTB11 / RFU, TAMM41 / Fold change vs veh, TAMM41 / RFU, KIAA1704 /// LOC100996395 / Fold change vs veh, KIAA1704 /// LOC100996395 / RFU, ING1 / Fold change vs veh, ING1 / RFU, TRMT61B / Fold change vs veh, TRMT61B / RFU, FUBP3 / Fold change vs veh, FUBP3 / RFU, TP53 / Fold change vs veh, TP53 / RFU, TNKS2 / Fold change vs veh, TNKS2 / RFU, ZFP14 / Fold change vs veh, ZFP14 / RFU, ACTR2 / Fold change vs veh, ACTR2 / RFU, PPP3R1 / Fold change vs veh, PPP3R1 / RFU, PIK3R1 / Fold change vs veh, PIK3R1 / RFU, HNRNPA1 / Fold change vs veh, HNRNPA1 / RFU, RNF170 / Fold change vs veh, RNF170 / RFU, ZNF28 / Fold change vs veh, ZNF28 / RFU, RNGTT / Fold change vs veh, RNGTT / RFU, OGT / Fold change vs veh, OGT / RFU, BRD1 / Fold change vs veh, BRD1 / RFU, MARS / Fold change vs veh, MARS / RFU, ZNF655 / Fold change vs veh, ZNF655 / RFU, FAHD1 / Fold change vs veh, FAHD1 / RFU, BDP1 / Fold change vs veh, BDP1 / RFU, LRRCC1 / Fold change vs veh, LRRCC1 / RFU, ARID1A / Fold change vs veh, ARID1A / RFU, ZNF146 / Fold change vs veh, ZNF146 / RFU, ZNF330 / Fold change vs veh, ZNF330 / RFU, GPN3 / Fold change vs veh, GPN3 / RFU, C9orf123 / Fold change vs veh, C9orf123 / RFU, N4BP2L2 / Fold change vs veh, N4BP2L2 / RFU, ARFIP1 / Fold change vs veh, ARFIP1 / RFU, FAM179B / Fold change vs veh, FAM179B / RFU, BCL10 / Fold change vs veh, BCL10 / RFU, UHRF1BP1L / Fold change vs veh, UHRF1BP1L / RFU, BET1 / Fold change vs veh, BET1 / RFU, CNOT2 / Fold change vs veh, CNOT2 / RFU, ZNF268 / Fold change vs veh, ZNF268 / Fold change vs veh, ZNF507 / RFU, DGCR2 / Fold change vs veh, DGCR2 / RFU, WDSUB1 / Fold change vs veh, WDSUB1 / Fold change vs veh, HSP90B1 /// MIR3652 / RFU, ADSS / Fold change vs veh, ADSS / RFU, GK / Fold change vs veh, GK / RFU, ZNF148 / Fold change vs veh, ZNF148 / RFU, TAF9 / Fold change vs veh, TAF9 / RFU, SLC1A5 / Fold change vs veh, SLC1A5 / RFU, SLMO2 / Fold change vs veh, SLMO2 / RFU, ABCC4 / Fold change vs veh, ABCC4 / RFU, LOC101060439 /// RAP1B / Fold change vs veh, LOC101060439 /// RAP1B / RFU, RFX7 / Fold change vs veh, RFX7 / RFU, GTPBP10 / Fold change vs veh, GTPBP10 / RFU, CNEP1R1 / Fold change vs veh, CNEP1R1 / RFU, BIVM-ERCC5 /// ERCC5 / Fold change vs veh, BIVM-ERCC5 /// ERCC5 / RFU, ILF3 / Fold change vs veh, ILF3 / RFU 11762660_at / Fold change /veh 11762660_at / RFU VCAN (11757783_s_at) / Fold change /veh VCAN (11757783_s_at) / RFU DDX43 (11728927_at) / Fold change /veh DDX43 (11728927_at) / RFU KRT8 (11758188_x_at) / Fold change /veh KRT8 (11758188_x_at) / RFU NKD1 (11759106_at) / Fold change /veh NKD1 (11759106_at) / RFU SRD5A1 (11742802_a_at) / Fold change /veh SRD5A1 (11742802_a_at) / RFU TPSAB1 /// TPSB2 (11721975_s_at) / Fold change /veh TPSAB1 /// TPSB2 (11721975_s_at) / RFU GSTM3 (11746129_a_at) / Fold change /veh GSTM3 (11746129_a_at) / RFU IL23R (11737362_x_at) / Fold change /veh IL23R (11737362_x_at) / RFU TMEM51 (11727254_a_at) / Fold change /veh TMEM51 (11727254_a_at) / RFU PIWIL2 (11732686_x_at) / Fold change /veh PIWIL2 (11732686_x_at) / RFU ORM1 (11744905_x_at) / Fold change /veh ORM1 (11744905_x_at) / RFU CCDC152 (11743942_at) / Fold change /veh CCDC152 (11743942_at) / RFU ECM1 (11717891_a_at) / Fold change /veh ECM1 (11717891_a_at) / RFU IL23R (11748794_a_at) / Fold change /veh IL23R (11748794_a_at) / RFU TNFAIP8L3 (11732012_x_at) / Fold change /veh TNFAIP8L3 (11732012_x_at) / RFU MBOAT4 (11741988_at) / Fold change /veh MBOAT4 (11741988_at) / RFU 11764193_at / Fold change /veh 11764193_at / RFU TMEM53 (11763286_at) / Fold change /veh TMEM53 (11763286_at) / RFU MAGEB2 (11727129_at) / Fold change /veh MAGEB2 (11727129_at) / RFU TMEM200A (11744735_a_at) / Fold change /veh TMEM200A (11744735_a_at) / RFU CCDC152 (11751479_a_at) / Fold change /veh CCDC152 (11751479_a_at) / RFU FAM211A (11726209_a_at) / Fold change /veh FAM211A (11726209_a_at) / RFU RGS16 (11746705_a_at) / Fold change /veh RGS16 (11746705_a_at) / RFU VCAN (11755009_s_at) / Fold change /veh VCAN (11755009_s_at) / RFU RHOB (11743442_s_at) / Fold change /veh RHOB (11743442_s_at) / RFU RGS16 (11720943_a_at) / Fold change /veh RGS16 (11720943_a_at) / RFU RGS16 (11720944_at) / Fold change /veh RGS16 (11720944_at) / RFU, VPS4B / Fold change vs veh, VPS4B / RFU, CREB1 / Fold change vs veh, CREB1 / RFU, DNAJC13 / Fold change vs veh, DNAJC13 / RFU, GNAQ / Fold change vs veh, GNAQ / RFU, CDK5R1 / Fold change vs veh, CDK5R1 / RFU, ZRANB3 / Fold change vs veh, ZRANB3 / RFU, CUL4A / Fold change vs veh, CUL4A / RFU, CCNY / Fold change vs veh, CCNY / RFU, UFL1 / Fold change vs veh, UFL1 / RFU, COG3 / Fold change vs veh, COG3 / RFU, DIAPH2 / Fold change vs veh, DIAPH2 / RFU, SKA2 / Fold change vs veh, SKA2 / RFU, AFF3 / Fold change vs veh, AFF3 / RFU, LMF1 / Fold change vs veh, LMF1 / RFU, IPO11 / Fold change vs veh, IPO11 / RFU, DFFB / Fold change vs veh, DFFB / RFU, FOXP1 / Fold change vs veh, FOXP1 / RFU, CARD8 / Fold change vs veh, CARD8 / RFU, STRN3 / Fold change vs veh, STRN3 / RFU, ADK / Fold change vs veh, ADK / RFU, RASSF2 / Fold change vs veh, RASSF2 / RFU, WIPF1 / Fold change vs veh, WIPF1 / RFU, LARP1B / Fold change vs veh, LARP1B / RFU, RASA1 / Fold change vs veh, RASA1 / RFU, RB1 / Fold change vs veh, RB1 / RFU, PPFIA1 / Fold change vs veh, PPFIA1 / RFU, MAT2A / Fold change vs veh, MAT2A / RFU, CCT5 / Fold change vs veh, CCT5 / RFU, WDR92 / Fold change vs veh, WDR92 / RFU, CUX1 / Fold change vs veh, CUX1 / RFU, TTC7A / Fold change vs veh, TTC7A / RFU, TMEM135 / Fold change vs veh, TMEM135 / RFU, DEPTOR / Fold change vs veh, DEPTOR / RFU, CPM / Fold change vs veh, CPM / RFU, DNAJB6 / Fold change vs veh, DNAJB6 / RFU, CACNA2D3 / Fold change vs veh, CACNA2D3 / RFU, DTX4 / Fold change vs veh, DTX4 / RFU, TFCP2 / Fold change vs veh, TFCP2 / RFU, GMCL1 /// GMCL1P1 / Fold change vs veh, GMCL1 /// GMCL1P1 / RFU, AEBP2 / Fold change vs veh, AEBP2 / RFU, SNHG1 /// SNORD22 /// SNORD25 /// SNORD26 /// SNORD27 /// SNORD28 /// SNORD29 /// SNORD31 / Fold change vs veh, SNHG1 /// SNORD22 /// SNORD25 /// SNORD26 /// SNORD27 /// SNORD28 /// SNORD29 /// SNORD31 / Fold change (Aza/veh), C12orf56 (ProbeSet 11735607_a_at) / Fold change (ACY-1035/veh), C12orf56 (ProbeSet 11735607_a_at) / Fold change (Aza/veh), FGFR1OP (ProbeSet 11751329_s_at) / Fold change (ACY-1035/veh), FGFR1OP (ProbeSet 11751329_s_at) / Fold change (Aza/veh), VPS36 (ProbeSet 11739960_a_at) / Fold change (ACY-1035/veh), VPS36 (ProbeSet 11739960_a_at) / RFU SYPL1 (11715823_x_at) / Fold change /veh SYPL1 (11715823_x_at) / RFU IGFBP7 (11715501_s_at) / Fold change /veh IGFBP7 (11715501_s_at) / RFU REEP3 (11722064_at) / Fold change /veh REEP3 (11722064_at) / RFU IGLL1 (11728026_x_at) / Fold change /veh IGLL1 (11728026_x_at): dose or concentration left out as unconfirmed
Conditions: MV-4-11 cells, 48 hours

For `Nc1ccc(-c2cccs2)cc1NC(=O)c1ccc2c(c1)cc(C1CC1)n2CCN1CCOCC1` [ACY-1035], the “RFU TPSAB1 /// TPSB2 (11721975_s_at)” value was 19.29 RFU.
